Entries after “also recorded” stand apart in the source; their conditions may differ. Like-named read-outs stand apart in the source and are kept apart here. Blank lines part the entries; values can stand above or below the molecule they belong to. No end group written: not given here. *: point of attachment. Biotin = O=C1N[C@H]2[C@H](CS[C@H]2CCCCC(=O)*)N1
Legend:
PXR = test system: PXR; parameters: method as in PMID 16565514; details: literature value; cited from earlier work
PPARγ [1] = target: T1, PPARγ (Homo sapiens, UniProt P37231); test: Gal4 hybrid reporter gene assay PPARγ; format: cell-based; details: Gal4 hybrid reporter, HEK293T, 12-14 h; mean ± SEM, at least three experiments
T1 construct: expressed in transfected cells; host or cells: HEK293T
T1 sequence (P37231 238-503 limits assumed): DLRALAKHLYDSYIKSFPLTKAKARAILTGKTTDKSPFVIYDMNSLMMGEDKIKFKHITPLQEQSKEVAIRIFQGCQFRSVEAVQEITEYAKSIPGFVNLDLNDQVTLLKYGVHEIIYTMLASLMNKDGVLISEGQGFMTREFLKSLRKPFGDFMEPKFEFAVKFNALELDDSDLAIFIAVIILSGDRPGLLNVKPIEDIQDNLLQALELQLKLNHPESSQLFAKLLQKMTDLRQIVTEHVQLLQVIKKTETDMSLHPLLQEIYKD
Source text: (§1) These in vitro test systems are based on a constitutively expressed hybrid receptor composed of the ligand binding domain of the respective human nuclear receptor and the DNA binding domain of the yeast receptor Gal4. A Gal4-inducible firefly luciferase serves as reporter gene and a constitutively expressed renilla luciferase is used for normalization of transfection efficacy and internal toxicity control[18],[19]. […] The Gal4-fusion receptor plasmids pFA-CMV-hPPARα-LBD[50], pFA-CMV-hPPARγ-LBD[50], pFA-CMV-hPPARδ-LBD[50], pFA-CMV-hLXRα-LBD[51], pFA-CMV-hLXRβ-LBD[51], pFA-CMV-hRXRα-LBD[52], pFA-CMV-hRXRβ-LBD[52], pFA-CMV-hRXRγ-LBD[52], pFA-CMV-hRARα-LBD[52], pFA-CMV-hRARβ-LBD[52], pFA-CMV-hRARγ-LBD[52], pFA-CMV-hFXR-LBD[53], pFA-CMV-hVDR-LBD[52], pFA-CMV-hCAR-LBD[52] and pFA-CMV-hPXR-LBD[52] coding for the hinge region and ligand binding domain (LBD) of the canonical isoform of the respective nuclear receptor have been reported previously. pFR-Luc (Stratagene) was used as reporter plasmid and pRL-SV40 (Promega) for normalization of transfection efficiency and cell growth.
(§2) HEK293T cells were grown in DMEM high glucose, supplemented with 10% FCS, sodium pyruvate (1 mM), penicillin (100 U/mL) and streptomycin (100 μg/mL) at 37 °C and 5% CO2. The day before transfection, HEK293T cells were seeded in 96-well plates (3·10^4 cells/well). Before transfection, medium was changed to Opti-MEM without supplements. Transient transfection was carried out using Lipofectamine LTX reagent (Invitrogen) according to the manufacturer’s protocol with pFR-Luc (Stratagene), pRL-SV40 (Promega) and the corresponding Gal4-fusion nuclear receptor plasmid. 5 h after transfection, medium was changed to Opti-MEM supplemented with penicillin (100 U/mL), streptomycin (100 μg/mL), now additionally containing 0.1% DMSO and the respective test compound or 0.1% DMSO alone as untreated control. Each concentration was tested in duplicates and each experiment was repeated independently at least three times. Following overnight (12-14 h) incubation with the test compounds, cells were assayed for luciferase activity using Dual-Glo™ Luciferase Assay System (Promega) according to the manufacturer’s protocol. Luminescence was measured with an Infinite M200 luminometer (Tecan Deutschland GmbH). […] Fold activation was obtained by dividing the mean RLU of a test compound at a respective concentration by the mean RLU of untreated control.

murine PPARγ = details: read-out: PPARγ (EC50) literature; cited from earlier work
PPARγ [2] = details: cited from earlier work
3T3-L1 mouse fibroblasts = test system: 3T3-L1 mouse fibroblasts; parameters: method as in PMID 19048458; details: cited from earlier work
[3] = test system: adiponectin plasma levels; parameters: method as in PMID 19048458; details: in men; cited from earlier work
[4] = parameters: method as in PMID 18274627; details: HEK293T cells; cited from earlier work
PPARα [5] = target: T2, PPARα (Homo sapiens, UniProt Q07869); test: Gal4 hybrid reporter gene assay PPARα; format: cell-based; details: Gal4 hybrid reporter, HEK293T, 12-14 h; mean ± SEM, at least three experiments
T2 construct: expressed in transfected cells; host or cells: HEK293T
T2 sequence (Q07869 239-466 limits assumed): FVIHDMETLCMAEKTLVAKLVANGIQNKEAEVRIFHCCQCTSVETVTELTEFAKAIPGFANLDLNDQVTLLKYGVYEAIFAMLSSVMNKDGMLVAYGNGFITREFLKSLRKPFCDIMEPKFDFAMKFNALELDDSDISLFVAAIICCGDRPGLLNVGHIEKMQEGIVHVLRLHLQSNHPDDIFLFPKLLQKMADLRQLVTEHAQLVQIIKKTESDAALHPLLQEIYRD
Source text: as §1, §2

PPARα [6] = details: cited from earlier work
3T3-L1 adipocytes = test: Differentiation of 3T3-L1 adipocytes, Oil Red O staining; format: cell-based, murine; details: rosiglitazone 2 μM; lesinurad up to 50 μM
Protocol: For this, 3T3-L1 cells were treated with insulin, dexamethasone and isobutylmethylxanthine (IBMX) to induce their differentiation into mature adipocytes. […] 3T3-L1 cells were subcultured in DMEM containing 10% newborn calf serum in a humidified atmosphere at 37 °C, 5% CO2. Cells were differentiated into adipocytes within 14 days according to the method[54] reported by Zebisch and colleagues. In brief, cells were seeded in 6-well plates ([…]). […] At day 5, medium was changed to contain only insulin for another two days. Cells were then kept for lipid droplet accumulation in basal medium without additions until day 15. […] Differentiation of 3T3-L1 cells to adipocytes was confirmed by Oil Red O staining. For this, cells were washed with PBS and then fixed for 60 min with a formaldehyde solution (4% in PBS). Subsequently, cells were rinsed with 60% isopropanol and incubated with Oil Red O solution (0.3%) for 120 min.

[7] = test system: PPARγ-regulated genes in 3T3-L1 adipocytes; test: PPARγ target gene quantification in 3T3-L1 adipocytes (qPCR); format: cell-based, murine
Protocol: 3T3-L1 cells were cultured and differentiated as described above. Cells were then lysed using TRIzol reagent (Ambion, Life Technologies, Carlsbad, CA, USA), and mRNA was isolated following the manufacturer’s protocol. DNA contaminations were digested using DNase (DNase I, RNase-free kit; Thermo Scientific, Waltham, MA, USA) and mRNA concentrations were measured with a NanoDrop2000 spectrophotometer (Thermo Scientific, Waltham, MA, USA). Subsequently, reverse transcription was performed using the high capacity RNA-to-cDNA kit (Applied Biosystems, Foster City, CA, USA). Quantitative real-time PCR was performed using specific primers for CD36, […] and CPT1A with a StepOnePlus real-time PCR system (Applied Biosystems, Foster City, CA, USA). Non-POU domain containing octamer binding protein (NonO) was used as reference gene for 3T3-L1. All samples were measured in duplicate and were analyzed using the ΔΔCt method. The following PCR primers were used: Adiponectin: 5′-TGACGACACCAAAAGGGCTC-3′ (fwd) and 5′-CACAAGTTCCCTTGGGTGGA-3′ (rev); CD36: 5′-TGCTGGAGCTGTTATTGGTG-3′ (fwd) and 5′-CATGAGAATGCCTCCAAACA-3′ (rev); FABP4: 5′-AGAAGTGGGAGTGGGCTTTG-3′ (fwd) and 5′-ACTCTCTGACCGGATGGTGA-3′ (rev); GLUT4: 5′-TGAAGAACGGATAGGGAGCAG-3′ (fwd) and 5′-GAAGTGCAAAGGGTGAGTGAG-3′ (rev); NonO: 5′-TGCTCCTGTGCCACCTGGTACTC-3′ (fwd) and 5′-CCGGAGCTGGACGGTTGAATGC-3′ (rev).
Results (expressed as mean ± SEM % relative mRNA expression; n = 3): Adiponectin: untreated (0.1% DMSO): 124 ± 45%; […];

[8] = target: recombinant PPARγ LBD ligand binding domain fused to N-terminal GFP (human); test: AlphaScreen or HTRF; homogeneous time-resolved FRET; 12 nM GFP-PPARγ LBD (acceptor) and 12 nM streptavidin-terbium cryptate with biotinylated coactivator peptide (donor); lesinurad at varying concentrations, 1% DMSO; 25 mM HEPES pH 7.5, 150 mM KF, 5% glycerol, 0.1% CHAPS, 5 mM DTT; 2 h at RT; referenced to recruitment with 1 μM rosiglitazone
recombinant PPARγ LBD ligand binding domain fused to N-terminal GFP (human), sequence (P37231 whole entry, the tested form may be a part): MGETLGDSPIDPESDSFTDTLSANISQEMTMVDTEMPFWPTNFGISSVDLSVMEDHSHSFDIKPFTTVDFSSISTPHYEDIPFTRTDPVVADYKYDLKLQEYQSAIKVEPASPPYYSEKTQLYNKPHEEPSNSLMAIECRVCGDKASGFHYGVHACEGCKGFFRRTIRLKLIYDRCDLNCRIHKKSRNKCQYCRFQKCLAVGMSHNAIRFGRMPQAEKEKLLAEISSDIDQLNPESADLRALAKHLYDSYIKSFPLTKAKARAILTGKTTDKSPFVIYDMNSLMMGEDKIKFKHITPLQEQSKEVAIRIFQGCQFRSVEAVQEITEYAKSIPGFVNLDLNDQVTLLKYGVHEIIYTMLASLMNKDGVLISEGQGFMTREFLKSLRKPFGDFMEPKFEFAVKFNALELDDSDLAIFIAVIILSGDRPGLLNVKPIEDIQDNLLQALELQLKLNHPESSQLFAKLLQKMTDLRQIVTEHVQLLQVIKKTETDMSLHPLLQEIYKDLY

Molecule: CCOP(=O)(OCC)C(=Cc1cc(C(C)(C)C)c(O)c(C(C)(C)C)c1)P(=O)(OCC)OCC [SR12813]
- EC50 (PXR): 140 nM

- EC50 (PPARγ [1]): 5400 ± 1100 nM
Molecule: CC(=O)NCCOC(=O)[C@H](Oc1cccc(C(F)(F)F)c1)c1ccc(Cl)cc1 [arhalofenate]

Molecule: O=C(O)[C@H](Oc1cccc(C(F)(F)F)c1)c1ccc(Cl)cc1 [arhalofenic acid]
- EC50 (PPARγ [1]): 470 ± 20 nM
- EC50 (murine PPARγ): 12000 nM

Molecule: CCc1oc2ccccc2c1C(=O)c1cc(Br)c(O)c(Br)c1 [benzbromarone]
- PPARγ literature activity (PPARγ [2]; no precise activity value reported): active[24]***
- expression of CD36, adiponectin and FABP4 (aP2) (3T3-L1 mouse fibroblasts): significantly induced
- adiponectin plasma levels [3]: enhanced adiponectin plasma levels
- expression of lipoprotein lipase (LPL) and acyl-CoA-synthetase [4]: induced

- EC50 (PPARα [5]): 6500 ± 500 nM
Molecule: CC(C)(Oc1ccc(C(=O)c2ccc(Cl)cc2)cc1)C(=O)O [fenofibric acid]

Molecule: CN(CCOc1ccc(CC2SC(=O)NC2=O)cc1)c1ccccn1 (centres unmarked) [rosiglitazone]
- lipid accumulation during differentiation (Oil Red O staining) (3T3-L1 adipocytes): massive accumulation of lipid droplets; also recorded: massive storage of fat
- Adiponectin relative mRNA expression [7]: 455 ± 111%
- CD36 relative mRNA expression [7]: 468 ± 8%
- FABP4 relative mRNA expression [7]: 338 ± 46%
- GLUT4 relative mRNA expression [7]: 695 ± 145%

- EC50 (PPARα [5]): 99 ± 5 nM
- EC50 (PPARγ [1]): 49 ± 5 nM
Molecule: CCO[C@@H](Cc1ccc(OCCc2ccc(OS(C)(=O)=O)cc2)cc1)C(=O)O [tesaglitazar]
- EC50 (PPARα [6]; hybrid transactivation assay, 40 hours incubation, read-out: PPARα (EC50) literature): 1700 nM
- EC50 (murine PPARγ): 250 nM

- % recruitment with lesinurad relative to 1 μM rosiglitazone [8]: 59%
- EC50 of lesinurad for induced recruitment [8]: 44000 nM
Molecule: Biotin-NLVPDAASKHKQLSELLRGGSGS [CBP derived peptide (biotin-…)]

Reference: publication PMC6131501, “Urate transporter inhibitor lesinurad is a selective peroxisome proliferator-activated receptor gamma modulator (sPPARγM) in vitro” (Scientific Reports, 2018)
